From patent publication US20200181104A1, “SSAO INHIBITORS AND USES THEREOF” (METACRINE, INC., priority 2018, published 2020)
Where a name gives a salt, the structure may show the parent alone.

Target: T1, Recombinant Human SSAO/VAP-1/AOC3 (Homo sapiens, UniProt Q16853)
T1 construct: purchased R&D systems 3957-AO
T1 sequence (Q16853 1-763): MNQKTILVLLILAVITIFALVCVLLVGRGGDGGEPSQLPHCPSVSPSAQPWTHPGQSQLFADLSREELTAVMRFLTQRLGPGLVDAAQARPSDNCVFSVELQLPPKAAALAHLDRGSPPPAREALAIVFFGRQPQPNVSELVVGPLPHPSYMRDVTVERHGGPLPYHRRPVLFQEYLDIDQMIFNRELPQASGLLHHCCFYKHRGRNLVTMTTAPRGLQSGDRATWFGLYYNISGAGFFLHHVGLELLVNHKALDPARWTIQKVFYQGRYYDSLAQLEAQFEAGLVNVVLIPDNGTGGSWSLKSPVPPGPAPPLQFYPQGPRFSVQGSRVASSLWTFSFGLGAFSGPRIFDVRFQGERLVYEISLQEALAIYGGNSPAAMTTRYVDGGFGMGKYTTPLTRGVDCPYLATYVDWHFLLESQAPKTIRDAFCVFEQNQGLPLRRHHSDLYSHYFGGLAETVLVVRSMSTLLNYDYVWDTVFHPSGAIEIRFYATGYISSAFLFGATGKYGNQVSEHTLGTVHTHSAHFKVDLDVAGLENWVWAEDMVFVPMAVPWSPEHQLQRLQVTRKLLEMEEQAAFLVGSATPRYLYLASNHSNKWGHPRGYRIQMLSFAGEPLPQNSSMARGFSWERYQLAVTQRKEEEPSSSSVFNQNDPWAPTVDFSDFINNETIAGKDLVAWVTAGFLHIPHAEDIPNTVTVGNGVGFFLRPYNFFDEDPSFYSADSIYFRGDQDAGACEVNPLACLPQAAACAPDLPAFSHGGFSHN
Assay: Human Semicarbazide-Sensitive Amine Oxidase (SSAO) Assay
Assay type: biochemical
Details: recombinant enzyme, 30 minutes preincubation at 37° C., benzylamine substrate, Amplex Ultra Red/HRP fluorescence
How it was run: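 IC50 from kinetic Amplex Ultra Red/HRP fluorescence (ex 544, em 590 nm, 30-120 min) after benzylamine addition. Beforehand, 6-10 compound dilutions were preincubated 30 min at 37 °C with recombinant human SSAO in 50 mM HEPES (enzyme working concentration 2.5 μg/ml).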

Row | IC50 [nM] | SMILES
1 | ≤ 10 | COc1cnc(CNC(=O)C23CCC(c4ccc(OC/C(=C/F)CN)cc4)(CC2)CC3)cn1 [Compound 2.160, (E)-4-(4-((2-(aminomethyl)-3-fluoroallyl)oxy)phenyl)-N-((5-methoxypyrazin-2-yl)methyl)bicyclo[2.2.2]octane-1-carboxamide]
2 | ≤ 10 | COc1cncc(CNC(=O)C23CCC(c4ccc(OC/C(=C/F)CN)cc4)(CC2)CC3)n1 [Compound 2.161, (E)-4-(4-((2-(aminomethyl)-3-fluoroallyl)oxy)phenyl)-N-((6-methoxypyrazin-2-yl)methyl)bicyclo[2.2.2]octane-1-carboxamide]
3 | ≤ 10 | NC/C(=C\F)COc1ccc(C23CC(C(=O)NC4CCOCC4)(C2)C3)cc1 [Compound 3, (E)-3-(4-((2-(aminomethyl)-3-fluoroallyl)oxy)phenyl)-N-(tetrahydro-2H-pyran-4-yl)bicyclo[1.1.1]pentane-1-carboxamide]
4 | ≤ 10 | CC1(C)CC(NC(=O)C23CC(c4ccc(OC/C(=C/F)CN)cc4)(C2)C3)CCO1 (stereo not drawn) [Compound 3.01, (E)-3-(4-((2-(aminomethyl)-3-fluoroallyl)oxy)phenyl)-N-(2,2-dimethyltetrahydro-2H-pyran-4-yl)bicyclo[1.1.1]pentane-1-carboxamide]
5 | ≤ 10 | CC1(C)CC(NC(=O)C23CC(c4ccc(OC/C(=C/F)CN)cc4)(C2)C3)CC(C)(C)O1 [Compound 3.02, (E)-3-(4-((2-(aminomethyl)-3-fluoroallyl)oxy)phenyl)-N-(2,2,6,6-tetramethyltetrahydro-2H-pyran-4-yl)bicyclo[1.1.1]pentane-1-carboxamide]
6 | ≤ 10 | COCCNC(=O)C12CC(c3ccc(OC/C(=C/F)CN)cc3)(C1)C2 [Compound 3.03, (E)-3-(4-((2-(aminomethyl)-3-fluoroallyl)oxy)phenyl)-N-(2-methoxyethyl)bicyclo[1.1.1] pentane-1-carboxamide]
7 | ≤ 10 | CO[C@H]1C[C@@H](NC(=O)C23CC(c4ccc(OC/C(=C/F)CN)cc4)(C2)C3)C1 [Compound 3.05, 3-(4-(((E)-2-(aminomethyl)-3-fluoroallyl)oxy)phenyl)-N-((1r,3r)-3-methoxycyclobutyl)bicyclo [1.1.1]pentane-1-carboxamide]
8 | ≤ 10 | CNC(=O)C12CCC(c3ccc(OC/C(=C/F)CN)cc3)(CC1)C2 [Compound 4, (E)-4-(4-((2-(Aminomethyl)-3-fluoroallyl)oxy)phenyl)-N-methylbicyclo[2.2.1]heptane-1-carboxamide Hydrochloride]
9 | ≤ 10 | NC/C(=C\F)COc1ccc(C23CCC(C(=O)NC4CCOCC4)(CC2)C3)cc1 [Compound 4.01, (E)-4-(4-((2-(Aminomethyl)-3-fluoroallyl)oxy)phenyl)-N-(tetrahydro-2H-pyran-4-yl)bicyclo[2.2.1]heptane-1-carboxamide Hydrochloride]

Further lines, the compound ahead of its results:

Row | SMILES | IC50 [nM]
10 | COc1nccc(CNC(=O)C23CCC(c4ccc(OC/C(=C/F)CN)cc4)(CC2)CC3)n1 [Compound 2.140, (E)-4-(4-((2-(aminomethyl)-3-fluoroallyl)oxy)phenyl)-N-((2-methoxypyrimidin-4-yl)methyl)bicyclo[2.2.2]octane-1-carboxamide] | ≤ 10
11 | COc1ccc(CNC(=O)C23CCC(c4ccc(OC/C(=C/F)CN)cc4)(CC2)CC3)cn1 [Compound 2.141, (E)-4-(4-((2-(aminomethyl)-3-fluoroallyl)oxy)phenyl)-N-((6-methoxpyridin-3-yl)methyl)bicyclo[2.2.2]octane-1-carboxamide] | ≤ 10
12 | NC/C(=C\F)COc1ccc(C23CCC(C(=O)N4CC5(CCCCO5)C4)(CC2)CC3)cc1 [Compound 2.143, (E)-(4-(4-((2-(aminomethyl)-3-fluoroallyl)oxy)phenyl)bicyclo [2.2.2]octan-1-yl)(5-oxa-2-azaspiro[3.5]nonan-2-yl)methanone] | ≤ 10
13 | COC1(CNC(=O)C23CCC(c4ccc(OC/C(=C/F)CN)cc4)(CC2)CC3)CC1 [Compound 2.144, (E)-4-(4-((2-(aminomethyl)-3-fluoroallyl)oxy)phenyl)-N-((1-methoxycyclopropyl)methyl) bicyclo[2.2.2]octane-1-carboxamide] | ≤ 10
14 | CO[C@H]1C[C@H](CNC(=O)C23CCC(c4ccc(OC/C(=C/F)CN)cc4)(CC2)CC3)C1 [Compound 2.145, 4-(4-(((E)-2-(aminomethyl)-3-fluoroallyl)oxy)phenyl)-N-(((1r,3r)-3-methoxycyclobutyl)methyl) bicyclo[2.2.2]octane-1-carboxamide] | ≤ 10
15 | CCOC1CC(NC(=O)C23CCC(c4ccc(OC/C(=C/F)CN)cc4)(CC2)CC3)C1 (stereo not drawn) [Compound 2.146, 4-(4-(((E)-2-(aminomethyl)-3-fluoroallyl)oxy)phenyl)-N-((1r,3r)-3-ethoxycyclobutyl)bicyclo[2.2.2] octane-1-carboxamide] | ≤ 10
16 | COC1(CCNC(=O)C23CCC(c4ccc(OC/C(=C/F)CN)cc4)(CC2)CC3)CCC1 [Compound 2.147, (E)-4-(4-((2-(aminomethyl)-3-fluoroallyl)oxy)phenyl)-N-(2-(1-methoxycyclobutyl)ethyl) bicyclo[2.2.2]octane-1-carboxamide] | ≤ 10
17 | CO[C@H]1C[C@H](CNC(=O)C23CCC(c4ccc(OC/C(=C/F)CN)cc4)(CC2)CC3)C1 [Compound 2.148, 4-(4-(((E)-2-(aminomethyl)-3-fluoroallyl)oxy)phenyl)-N-(((1s,3s)-3-methoxycyclobutyl)methyl) bicyclo[2.2.2]octane-1-carboxamide] | ≤ 10
18 | CCO[C@H]1C[C@@H](NC(=O)C23CCC(c4ccc(OC/C(=C/F)CN)cc4)(CC2)CC3)C1 [Compound 2.150, 4-(4-(((E)-2-(aminomethyl)-3-fluoroallyl)oxy)phenyl)-N-((1s,3s)-3-ethoxycyclobutyl)bicyclo[2.2.2] octane-1-carboxamide] | ≤ 10
19 | COCC1(CNC(=O)C23CCC(c4ccc(OC/C(=C/F)CN)cc4)(CC2)CC3)CC1 [Compound 2.151, (E)-4-(4-((2-(aminomethyl)-3-fluoroallyl)oxy)phenyl)-N-((1-(methoxymethyl)cyclopropyl)methyl)bicyclo[2.2.2]octane-1-carboxamide] | ≤ 10
20 | NC/C(=C\F)COc1ccc(C23CCC(C(=O)NC4(C(F)(F)F)CCOCC4)(CC2)CC3)cc1 [Compound 2.152, (E)-4-(4-((2-(aminomethyl)-3-fluoroallyl)oxy)phenyl)-N-(4-(trifluoromethyl)tetrahydro-2H-pyran-4-yl)bicyclo[2.2.2]octane-1-carboxamide] | 10 to 100
21 | CC1(C)CCC(NC(=O)C23CCC(c4ccc(OC/C(=C/F)CN)cc4)(CC2)CC3)CO1 (stereo not drawn) [Compound 2.153, (E)-4-(4-((2-(aminomethyl)-3-fluoroallyl)oxy)phenyl)-N-(6,6-dimethyltetrahydro-2H-pyran-3-yl)bicyclo[2.2.2]octane-1-carboxamide] | ≤ 10
22 | NC/C(=C\F)COc1ccc(C23CCC(C(=O)NC4CCOC5(CCC5)C4)(CC2)CC3)cc1 (stereo not drawn) [Compound 2.154, (E)-4-(4-((2-(aminomethyl)-3-fluoroallyl)oxy)phenyl)-N-(5-oxaspiro[3.5]nonan-8-yl)bicyclo[2.2.2]octane-1-carboxamide] | ≤ 10
23 | NC/C(=C\F)COc1ccc(C23CCC(C(=O)NCc4ccncn4)(CC2)CC3)cc1 [Compound 2.155, (E)-4-(4-((2-(aminomethyl)-3-fluoroallyl)oxy)phenyl)-N-(pyrimidin-4-ylmethyl)bicyclo[2.2.2]octane-1-carboxamide] | ≤ 10
24 | N#CC1CCCC1NC(=O)C12CCC(c3ccc(OC/C(=C/F)CN)cc3)(CC1)CC2 (stereo not drawn) [Compound 2.156, (E)-4-(4-((2-(aminomethyl)-3-fluoroallyl)oxy)phenyl)-N-(2-cyanocyclopentyl)bicyclo[2.2.2] octane-1-carboxamide] | ≤ 10
25 | Cc1cncc(CNC(=O)C23CCC(c4ccc(OC/C(=C/F)CN)cc4)(CC2)CC3)n1 [Compound 2.157, (E)-4-(4-((2-(aminomethyl)-3-fluoroallyl)oxy)phenyl)-N-((6-methylpyrazin-2-yl)methyl)bicyclo[2.2.2]octane-1-carboxamide] | ≤ 10
26 | Cc1cnc(CNC(=O)C23CCC(c4ccc(OC/C(=C/F)CN)cc4)(CC2)CC3)cn1 [Compound 2.158, (E)-4-(4-((2-(aminomethyl)-3-fluoroallyl)oxy)phenyl)-N-((5-methylpyrazin-2-yl)methyl)bicyclo[2.2.2]octane-1-carboxamide] | ≤ 10
27 | NC/C(=C\F)COc1ccc(C23CCC(C(=O)NCc4cncc(C(F)(F)F)c4)(CC2)CC3)cc1 [Compound 2.159, (E)-4-(4-((2-(aminomethyl)-3-fluoroallyl)oxy)phenyl)-N-((5-(trifluoromethyl)pyridin-3-yl)methyl)bicyclo[2.2.2]octane-1-carboxamide] | ≤ 10
